By EC50 is commonly meant the concentration needed to bring the measured effect to its halfway point. Read a low EC50 as higher potency in that assay. Usually Emax stands for the size of the effect at its maximum, as opposed to the concentration needed.

The values below come from patent publication US20080132505A1 (Glaxo Group Limited, priority 2004, published 2008).

Some results are limits rather than exact numbers.

This assay addresses human cannabinoid CB2 receptor (Homo sapiens, UniProt P34972). Nature of the assay: Cannabinoid CB2 receptor agonist activity (yeast reporter assay, FDGlu fluorescence). The assay is classed as cell-based. The conditions noted are these: for EC50: EC50 value at the cloned human cannabinoid CB2 receptor; for Emax: read-out: efficacy value (Emax relative to HU210) at the cloned human cannabinoid CB2 receptor. Here is the method:
Determination of Cannabinoid CB2 Receptor Agonist Activity
The cannabinoid CB2 receptor agonist activity of the compounds of formula (I)-(IV) was determined in accordance with the following experimental method.
Yeast (Saccharomyces cerevisiae) cells expressing the human cannabinoid CB2 receptor were generated by integration of an expression cassette into the ura3 chromosomal locus of yeast strain MMY23. This cassette consisted of DNA sequence encoding the human CB2 receptor flanked by the yeast GPD promoter to the 5′ end of CB2 and a yeast transcriptional terminator sequence to the 3′ end of CB2. MMY23 expresses a yeast/mammalian chimeric G-protein alpha subunit in which the C-terminal 5 amino acids of Gpa1 are replaced with the C-terminal 5 amino acids of human Gαi3 (as described in Brown et al. (2000), Yeast 16:11-22). Cells were grown at 30° C. in liquid Synthetic Complete (SC) yeast media (Guthrie and Fink (1991), Methods in Enzymology, Vol. 194) lacking uracil, tryptophan, adenine and leucine to late logarithmic phase (approximately 6 OD600/ml).
Agonists were prepared as 10 mM stocks in DMSO. […] Agonist solutions in DMSO (1% final assay volume) were transferred into black, clear bottom, microtitre plates from NUNC (96- or 384-well). Cells were suspended at a density of 0.2 OD600/ml in SC media lacking histidine, uracil, tryptophan, adenine and leucine and supplemented with 10 mM 3-aminotriazole, 0.1M sodium phosphate pH 7.0, and […] fluorescein di-β-D-glucopyranoside (FDGlu). This mixture (50 ul per well for 384-well plates, 200 ul per well for 96-well plates) was added to agonist in the assay plates (Multidrop 384, Labsystems). After incubation at 30° C. for 24 hours, fluorescence resulting from degradation of FDGlu to fluorescein due to exoglucanase, an endogenous yeast enzyme produced during agonist-stimulated cell growth, was determined using a Spectrofluor microtitre plate reader (Tecan; excitation wavelength: 485 nm; emission wavelength: 535 nm). Fluorescence was plotted against compound concentration and iteratively curve fitted using a four parameter fit to generate a concentration effect value. Efficacy (Emax) was calculated from the equation
where Max[compound X] and Min[compound X] are the fitted maximum and minimum respectively from the concentration effect curve for compound X, and Max[HU210] and Min[HU210] are the fitted maximum and minimum respectively from the concentration effect curve for (6aR,10aR)-3-(1,1′-Dimethylheptyl)-6a,7,10,10a-tetrahydro-1-hydroxy-6,6-dimethyl-6H-dibenzo[b,d]pyran-9-methanol (HU210; available from Tocris). Equieffective molar ratio (EMR) values were calculated from the equation
Where EC50 [compound X] is the EC50 of compound X and EC50 [HU210] is the EC50 of HU210.

human cannabinoid CB2 receptor, sequence (P34972 whole entry): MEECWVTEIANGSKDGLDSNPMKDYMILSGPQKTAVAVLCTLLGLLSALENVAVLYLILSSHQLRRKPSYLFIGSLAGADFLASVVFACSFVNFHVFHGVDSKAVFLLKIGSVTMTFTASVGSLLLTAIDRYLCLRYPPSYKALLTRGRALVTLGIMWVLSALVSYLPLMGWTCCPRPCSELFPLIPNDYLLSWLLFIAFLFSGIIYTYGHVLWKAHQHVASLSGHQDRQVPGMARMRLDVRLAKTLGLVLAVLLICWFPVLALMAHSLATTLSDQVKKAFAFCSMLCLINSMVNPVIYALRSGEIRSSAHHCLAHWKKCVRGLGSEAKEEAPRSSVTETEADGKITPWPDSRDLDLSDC

For `COc1ccccc1Nc1ncc(C(=O)NCc2ccccc2)c(C(F)(F)F)n1` [Example 280, 2-(2-Methoxyphenylamino)-4-trifluoromethylpyrimidine-5-carboxylic acid benzyl-amide], the 50% effective concentration (EC50) is 20 to 300 nM and the Emax is greater than 50%. For `O=C(NCC1CCC1)c1cnc(Nc2cccc(Br)c2)nc1C(F)(F)F` [Example 199, 2-(3-Bromophenylamino)-4-trifluoromethyl-pyrimidine-5-carboxylic acid cyclobutylmethyl-amide], in that order: 20 to 300 nM and greater than 50%. Regarding `O=C(NCC1CCOCC1)c1cnc(Nc2ccc(Br)cc2F)nc1C(F)(F)F` [Example 232, 2-(2-Fluoro-4-bromo-phenylamino)-4-trifluoromethyl-pyrimidine-5-carboxylic acid (tetrahydro-pyran-4-ylmethyl)-amide], the 50% effective concentration (EC50) fell in the range of 20 to 300 nM and the Emax is greater than 50%.

`CSc1c(Nc2ncc(C(=O)NCC3CCOCC3)c(C(F)(F)F)n2)cccc1C(F)(F)F` [Example 182, 2-(2-Methylthio-3-(trifluoromethyl)phenylamino)-4-trifluoromethyl-pyrimidine-5-carboxylic acid (tetrahydropyran-4-ylmethyl)-amide]: the concentration giving a half-maximal response (EC50) fell in the range of 20 to 300 nM and the maximal response (Emax) was greater than 50%.

Take `O=C(NCc1ccccc1)c1cnc(Nc2cc(Cl)cc(Cl)c2)nc1C(F)(F)F` [Example 276, 2-(3,5-Dichlorophenylamino)-4-trifluoromethylpyrimidine-5-carboxylic acid benzyl-amide]: the EC50 fell in the range of 20 to 300 nM. Turning to `Cc1cc(CNC(=O)c2cnc(Nc3cccc(Br)c3)nc2C(F)(F)F)ccn1` [Example 304, 2-(3-Bromo-phenylamino)-4-trifluoromethyl-pyrimidine-5-carboxylic acid (2-methyl-pyridin-4-ylmethyl)-amide], the concentration for a half-maximal effect (EC50) lay in the range of 300 to 1000 nM and the Emax was greater than 50%. For `N#Cc1cccc(Nc2ncc(C(=O)NCC3CCCCC3)c(C(F)(F)F)n2)c1` [Example 171, 2-(3-Cyanophenylamino)-4-trifluoromethyl-pyrimidine-5-carboxylic acid cyclohexylmethyl-amide], the half-maximal effective concentration (EC50) was in the range of 20 to 300 nM and the maximal response (Emax) is greater than 50%. Regarding `O=C(NCC1CCOCC1)c1cnc(Nc2ccc(Cl)cc2C(F)(F)F)nc1C(F)(F)F` [Example 104, 2-(2-Trifluoromethyl-4-chlorophenylamino)-4-trifluoromethyl-pyrimidine-5-carboxylic acid (tetrahydro-pyran-4-ylmethyl)-amide], the EC50 lay in the range of 300 to 1000 nM and the maximal response (Emax) was greater than 50%. For `O=C(NCC1CCC1)c1cnc(Nc2cc(Cl)ccc2Cl)nc1C(F)(F)F` [Example 202, 2-(2,5-Dichlorophenylamino)-4-trifluoromethyl-pyrimidine-5-carboxylic acid cyclobutylmethyl-amide], in that order: 20 to 300 nM and greater than 50%.

As for `O=C(c1cnc(Nc2cc(Cl)ccc2Cl)nc1C(F)(F)F)N1CCCCC1` [Example 85, 1-[2-(2,5-Dichloro-phenylamino)-4-tri-fluoromethyl-pyrimidin-5-yl]-1-piperidin-1-yl-methanone], the concentration giving a half-maximal response (EC50) was 300 to 1000 nM and the Emax is greater than 50%.

Take `O=C(NCC1CCCC1)c1cnc(Nc2cc(F)ccc2Cl)nc1C(F)(F)F` [Example 249, 2-(2-Chloro-5-fluoro-phenylamino)-4-trifluoromethyl-pyrimidine-5-carboxylic acid cyclopentylmethyl-amide]: the EC50 was in the range of 20 to 300 nM and the Emax is greater than 50%. The matching figures for `O=C(c1cnc(Nc2ccc(Cl)c(Cl)c2)nc1C(F)(F)F)N1CCOCC1` [Example 68, 1-[2-(3,4-Dichlorophenylamino)-4-trifluoromethylpyrimidin-5-yl]-1-(morpholin-4-yl)-methanone]: 20 to 300 nM and greater than 50%. For `O=C(NCC1CCCCC1)c1cnc(Nc2cccc(Br)c2)nc1C(F)(F)F` [Example 20, 2-(3-Bromophenylamino)-4-trifluoromethylpyrimidine-5-carboxylic acid cyclohexylmethyl-amide], in that order: 20 to 300 nM and greater than 50%. For `COc1cc(Nc2ncc(C(=O)NCC3CCOCC3)c(C(F)(F)F)n2)ccc1Cl` [Example 186, 2-(4-Chloro-3-methoxyphenylamino)-4-trifluoromethyl-pyrimidine-5-carboxylic acid (tetrahydropyran-4-ylmethyl)-amide], in that order: 20 to 300 nM and greater than 50%.

`O=C(NCC1CCCCC1)c1cnc(Nc2ccccc2)nc1C(F)(F)F` [Example 5]: the Emax was greater than 50%.

With `CC(C)(C)CNC(=O)c1cnc(Nc2cccc(Cl)c2)nc1C(F)(F)F` [Example 28, 2-(3-Chloro-phenylamino)-4-trifluoromethyl-pyrimidine-5-carboxylic acid (2,2-dimethyl-propyl)-amide], the concentration for a half-maximal effect (EC50) was 300 to 1000 nM and the Emax was greater than 50%. With `O=C(NCc1ccc(F)cc1)c1cnc(Nc2cc(Cl)ccc2Cl)nc1C(F)(F)F` [Example 366, 2-(2,5-Dichloro-phenylamino)-4-trifluoromethyl-pyrimidine-5-carboxylic acid 4-fluoro-benzylamide], the EC50 fell in the range of 20 to 300 nM.

`O=C(NC1CCC1)c1cnc(Nc2cccc(Cl)c2)nc1C(F)(F)F` [Example 23, 2-(3-Chlorophenylamino)-4-trifluoromethylpyrimidine-5-carboxylic acid cyclobutyl-amide]: the EC50 is 20 to 300 nM and the Emax was greater than 50%. The matching figures for `O=C(NCC1CCCC1)c1cnc(Nc2ccccc2)nc1C(F)(F)F` [Example 251, 2-(Phenylamino)-4-trifluoromethyl-pyrimidine-5-carboxylic acid cyclopentylmethyl-amide]: 20 to 300 nM and greater than 50%. The matching figures for `O=C(NCC1CCCCC1)c1cnc(Nc2cc(Br)cc(C(F)(F)F)c2)nc1C(F)(F)F` [Example 91, 2-(3-Bromo-5-trifluoromethyl-phenylamino)-4-trifluoromethyl-pyrimidine-5-carboxylic acid cyclohexylmethyl-amide]: 300 to 1000 nM and greater than 50%.

In the case of `O=C(NCC1CCCC1)c1cnc(Nc2ccc(Cl)cc2Cl)nc1C(F)(F)F` [Example 41, 2-(2,4-Dichlorophenylamino)-4-trifluoromethylpyrimidine-5-carboxylic acid cyclopentylmethyl-amide], the EC50 lay in the range of 20 to 300 nM and the Emax is greater than 50%.

Consider `O=C(c1cnc(Nc2cccc(Cl)c2)nc1C(F)(F)F)N1CCCCC1` [Example 1, 1-[2-(3-Chlorophenylamino)-4-trifluoromethylpyrimidin-5-yl]-1-piperidin-1-ylmethanone], for which the half-maximal effective concentration (EC50) was in the range of 20 to 300 nM and the Emax was greater than 50%. The matching figures for `COc1cccc(Nc2ncc(C(=O)NCC3CCOCC3)c(C(F)(F)F)n2)c1` [Example 37, 2-(3-Methoxyphenylamino)-4-trifluoromethylpyrimidine-5-carboxylic acid (tetrahydropyran-4-ylmethyl)-amide]: 20 to 300 nM and greater than 50%. Consider `O=C(NCC1CCOCC1)c1cnc(Nc2cc(F)cc(F)c2)nc1C(F)(F)F` [Example 214, 2-(3,5-Difluorophenylamino)-4-trifluoromethyl-pyrimidine-5-carboxylic acid (tetrahydro-pyran-4-ylmethyl)-amide], for which the EC50 lay in the range of 20 to 300 nM and the Emax is greater than 50%.
